These results are taken from patent publication US20080279924A1, “HLA class I A2 tumor associated antigen peptides and vaccine compositions” (priority 1999, published 2008).

In one assay the test system is PBMC from healthy donors. The class given is cell-based, human.
In another assay the test system is HLA-DR molecules. Conditions: cited from earlier work.

aKXVAAWTLKAAa-NH2 [PADRE]: in the assay on PBMC from healthy donors, the “donors with primary T cell responses” value is on record as “all three donors”.

In the case of QYIKANSKFIGITE [Epitope 553.01], in the assay with PBMC from healthy donors, the “antigen concentration at which the 10,000 cpm proliferation level was reached” value was “about 10,000 ng/ml” and the “donors with primary T cell responses” value is listed as 2 out of 3. In the assay with HLA-DR molecules, the “number of DR molecules bound of DR molecules tested” value was “seven of 16”.
